Earlier results as cited in article PMC10721329, “Quisinostat is a brain-penetrant radiosensitizer in glioblastoma” (JCI Insight, 2023).

Conditions: human, in vivo; cited from earlier work

Cc1[nH]c2ccccc2c1CCNCc1ccc(/C=C/C(=O)NO)cc1 [panobinostat]
hematologic toxicities compared with QST: far more common and severe (grade 3 and 4)
